Source: patent publication US20120149625A1, “Detergent Composition” (Novozymes A/S, priority 2009, published 2012)
Like-named read-outs stand apart in the source and are kept apart here. Residues, ends and D or L forms follow the SMILES beside them. *: point of attachment. Cbz = O=C(OCc1ccccc1)*

How the values were obtained:
Savinase [1] = molecular target: T1, Savinase (Lederbergia lenta, UniProt P29600); test: AMSA laundry detergency, powder detergent, various inhibitors (Example 1); conditions: 30 nM protease, 40° C., 15° dH
T1 sequence (P29600 1-269): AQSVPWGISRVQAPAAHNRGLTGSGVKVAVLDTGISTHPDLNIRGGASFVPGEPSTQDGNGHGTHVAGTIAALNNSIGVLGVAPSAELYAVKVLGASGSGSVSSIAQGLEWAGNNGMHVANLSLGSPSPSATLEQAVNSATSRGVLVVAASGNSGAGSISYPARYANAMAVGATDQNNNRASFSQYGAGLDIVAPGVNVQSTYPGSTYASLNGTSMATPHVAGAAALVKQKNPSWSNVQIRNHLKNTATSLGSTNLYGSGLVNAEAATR

Savinase [2] = molecular target: T1, Savinase; test: biochemical; conditions: substrate SucAAPF-pNA, 0,1M TRIS pH 9.0, 25° C., [E]0=6E-09 M, read-out: inhibition constant Ki
Alcalase [3] = molecular target: T2, Alcalase (Bacillus licheniformis, UniProt P00780); test: AMSA laundry detergency, powder detergent, various inhibitors (Example 1); conditions: 30 nM protease, 40° C., 15° dH, inhibitor dosage 5, None = 100%
T2 construct: purchased Novozymes A/S
T2 sequence (P00780 106-379): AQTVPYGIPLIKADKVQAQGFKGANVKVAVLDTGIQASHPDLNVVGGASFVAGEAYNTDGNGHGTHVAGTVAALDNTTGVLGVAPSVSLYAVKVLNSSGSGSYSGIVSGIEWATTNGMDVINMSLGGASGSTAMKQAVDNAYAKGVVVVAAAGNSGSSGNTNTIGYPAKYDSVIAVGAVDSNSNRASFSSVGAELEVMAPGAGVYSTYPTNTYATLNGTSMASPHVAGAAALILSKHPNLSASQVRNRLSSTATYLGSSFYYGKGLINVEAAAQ

Savinase [4] = molecular target: T1, Savinase; test: AMSA laundry detergency, laundry liquid model detergent, various inhibitors (Example 2); conditions: 30 nM Savinase, 20° C., 15° dH, inhibitor dosering 5, None = 100%
Method: Model detergents and test materials for laundry were as follows:
After washing the textiles were flushed in tap water and dried.
Detergency was determined with various inhibitors in the laundry liquid model detergent with 30 nM protease (Savinase). Washing was done at 20° C. and water hardness 15° dH with test swatches EMPA117EH.

Savinase [5] = molecular target: T1, Savinase; test: Washing test with protease and inhibitor at various molar ratios (Example 4); conditions: 20° C., 15° dH
Method: Washing tests were made in detergents with a protease and an inhibitor. Washing conditions were 20 minutes washing at 20° C. and 15° dH. […] The inhibitor was inhibitor Z-GAY-H at various molar ratios. The results are shown as detergency with the inhibitor relative to detergency at the same conditions without the inhibitor:
The detergent was a powder detergent with the following composition at 2.5 g/L.
20.05 g Na-citrate dehydrate
The liquid detergent described under the AMSA assay was used.
The powder detergent described under the AMSA assay was used.

Alcalase [6] = molecular target: T2, Alcalase; test: as above; conditions: 30 nM Alcalase, 20° C., 15° dH
Savinase variant S99SE = Savinase variant S99SE (Lederbergia lenta, UniProt P29600, INS97E); conditions: Powder Detergent 2 at 2.5 g/L, 30 nM Savinase variant S99SE, 20° C., 15° dH
[7] = molecular target: Savinase variant Y167A + R170S + A194P (Lederbergia lenta, UniProt P29600, A188P/R164S/Y161A); conditions: Powder Detergent 2 at 2.5 g/L, 30 nM Savinase variant Y167A + R170S + A194P, 20° C., 15° dH
Protease 10R = test: Washing test in commercial liquid detergents (Example 4); conditions: Liquid detergent Commercial 1; inhibitor:protease molar ratio 5:1; 20 min, 20° C., 15° dH
Method: (§1) Washing tests were made in detergents with a protease and an inhibitor. Washing conditions were 20 minutes washing at 20° C. and 15° dH. The protease was Savinase at 30 nM. The inhibitor was inhibitor Z-GAY-H at various molar ratios. The results are shown as detergency with the inhibitor relative to detergency at the same conditions without the inhibitor:
(§2) Two commercial liquid detergents purchased in England were tested with inhibitor:protease molar ratio of 5:1. Protease 10R is described in WO 88/03947. Protease PD138 is described in […]

Protease PD138 = test: as above; conditions: Liquid detergent Commercial 1; inhibitor:protease molar ratio 5:1; 20 min, 20° C., 15° dH
Method: as §1, §2

[8] = inhibitor:protease molar ratio 500, None = 100%
[9] = molar ratio not given, None = 100%
[10] = inhibitor:protease molar ratio 5, None = 100%

Sequence of Savinase variant Y167A + R170S + A194P (P29600 whole entry Y161A/R164S/A188P): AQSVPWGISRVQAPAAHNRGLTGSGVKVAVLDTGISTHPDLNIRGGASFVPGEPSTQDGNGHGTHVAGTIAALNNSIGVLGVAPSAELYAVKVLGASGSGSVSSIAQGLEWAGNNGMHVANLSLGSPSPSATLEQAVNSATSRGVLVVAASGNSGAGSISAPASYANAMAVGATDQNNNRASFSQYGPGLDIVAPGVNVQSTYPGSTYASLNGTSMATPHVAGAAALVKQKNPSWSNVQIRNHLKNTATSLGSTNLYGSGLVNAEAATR
Sequence of Savinase variant S99SE (P29600 other isoform, or with tags, fused parts or gaps INS97E): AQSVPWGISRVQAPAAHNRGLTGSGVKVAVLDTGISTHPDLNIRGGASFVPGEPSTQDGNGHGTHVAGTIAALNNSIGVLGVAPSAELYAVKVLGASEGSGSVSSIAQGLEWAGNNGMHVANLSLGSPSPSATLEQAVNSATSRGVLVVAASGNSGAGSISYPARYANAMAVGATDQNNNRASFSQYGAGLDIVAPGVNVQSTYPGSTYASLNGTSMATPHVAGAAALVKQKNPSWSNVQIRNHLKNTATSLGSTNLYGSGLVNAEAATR

Structure (SMILES): O=Cc1ccc(B(O)O)cc1 [Inhibitor 4-FPBA, 4-formyl-phenyl-boronic acid]
- CS-37 % performance (Savinase [1]; [8]): 128%
- EMPA117EH % performance (Savinase [1]; [8]): 107%
- CS-37 % performance (Savinase [1]; [9]): 137%
- EMPA117EH % performance (Savinase [1]; [9]): 111%

Structure (SMILES): C[C@H](NC(=O)CNC(=O)OCc1ccccc1)C(=O)N[C@H](C=O)Cc1ccc(O)cc1 [Z-GAY-H] (Cbz-Gly-Ala-Tyr-aldehyde)
- Ki (Savinase [2]): 7.4 nM
- CS-37 % performance (Savinase [1]; [10]): 242%
- EMPA117EH % performance (Savinase [1]; [10]): 117%
- CS-37 % performance (Alcalase [3]): 147%
- EMPA117EH % performance (Alcalase [3]): 108%
- EMPA117EH % performance increase (Savinase [4]): 114%
- detergency with the inhibitor relative to without (Savinase [5]; Liquid Detergent (AMSA model), 30 nM Savinase, molar ratio 1.5): 114%
- detergency with the inhibitor relative to without (Savinase [5]; Liquid Detergent (AMSA model), 30 nM Savinase, molar ratio 3): 109%
- detergency with the inhibitor relative to without (Savinase [5]; Liquid Detergent (AMSA model), 30 nM Savinase, molar ratio 5): 108%
- detergency with the inhibitor relative to without (Savinase [5]; Powder Detergent 1 (AMSA model), 10 nM Savinase, molar ratio 0.5): 112%
- detergency with the inhibitor relative to without (Savinase [5]; Powder Detergent 1 (AMSA model), 10 nM Savinase, molar ratio 1): 108%
- detergency with the inhibitor relative to without (Savinase [5]; Powder Detergent 1 (AMSA model), 10 nM Savinase, molar ratio 1.5): 111%
- detergency with the inhibitor relative to without (Savinase [5]; Powder Detergent 1 (AMSA model), 10 nM Savinase, molar ratio 2): 121%
- detergency with the inhibitor relative to without (Savinase [5]; Powder Detergent 1 (AMSA model), 10 nM Savinase, molar ratio 3): 118%
- detergency with the inhibitor relative to without (Savinase [5]; Powder Detergent 1 (AMSA model), 10 nM Savinase, molar ratio 5): 118%
- detergency with the inhibitor relative to without (Savinase [5]; Powder Detergent 1 (AMSA model), 10 nM Savinase, molar ratio 10): 122%
- detergency with the inhibitor relative to without (Savinase [5]; Powder Detergent 1 (AMSA model), 10 nM Savinase, molar ratio 15): 116%
- detergency with the inhibitor relative to without (Savinase [5]; Powder Detergent 1 (AMSA model), 10 nM Savinase, molar ratio 20): 104%
- detergency with the inhibitor relative to without (Savinase [5]; Powder Detergent 1 (AMSA model), 10 nM Savinase, molar ratio 30): 101%
- detergency with the inhibitor relative to without (Savinase [5]; Powder Detergent 1 (AMSA model), 10 nM Savinase, molar ratio 50): 95%
- detergency with the inhibitor relative to without (Savinase [5]; Powder Detergent 1 (AMSA model), 30 nM Savinase, molar ratio 0.5): 106%
- detergency with the inhibitor relative to without (Savinase [5]; Powder Detergent 1 (AMSA model), 30 nM Savinase, molar ratio 1): 105%
- detergency with the inhibitor relative to without (Savinase [5]; Powder Detergent 1 (AMSA model), 30 nM Savinase, molar ratio 1.5): 107%
- detergency with the inhibitor relative to without (Savinase [5]; Powder Detergent 1 (AMSA model), 30 nM Savinase, molar ratio 2): 108%
- detergency with the inhibitor relative to without (Savinase [5]; Powder Detergent 1 (AMSA model), 30 nM Savinase, molar ratio 3): 105%
- detergency with the inhibitor relative to without (Savinase [5]; Powder Detergent 1 (AMSA model), 30 nM Savinase, molar ratio 5): 110%
- detergency with the inhibitor relative to without (Savinase [5]; Powder Detergent 1 (AMSA model), 30 nM Savinase, molar ratio 10): 107%
- detergency with the inhibitor relative to without (Savinase [5]; Powder Detergent 1 (AMSA model), 30 nM Savinase, molar ratio 15): 99%
- detergency with the inhibitor relative to without (Savinase [5]; Powder Detergent 1 (AMSA model), 30 nM Savinase, molar ratio 20): 95%
- detergency with the inhibitor relative to without (Savinase [5]; Powder Detergent 1 (AMSA model), 30 nM Savinase, molar ratio 30): 83%
- detergency with the inhibitor relative to without (Savinase [5]; Powder Detergent 1 (AMSA model), 30 nM Savinase, molar ratio 50): 80%
- detergency with the inhibitor relative to without (Savinase [5]; Powder Detergent 2 at 2.5 g/L, 30 nM Savinase, molar ratio 1.5): 132%
- detergency with the inhibitor relative to without (Savinase [5]; Powder Detergent 2 at 2.5 g/L, 30 nM Savinase, molar ratio 3): 140%
- detergency with the inhibitor relative to without (Savinase [5]; Powder Detergent 2 at 2.5 g/L, 30 nM Savinase, molar ratio 5): 134%
- detergency with the inhibitor relative to without (Alcalase [6]; Liquid Detergent (AMSA model), molar ratio 1.5): 145%
- detergency with the inhibitor relative to without (Alcalase [6]; Liquid Detergent (AMSA model), molar ratio 3): 169%
- detergency with the inhibitor relative to without (Alcalase [6]; Liquid Detergent (AMSA model), molar ratio 5): 146%
- detergency with the inhibitor relative to without (Alcalase [6]; Liquid Detergent (AMSA model), molar ratio 7.5): 149%
- detergency with the inhibitor relative to without (Alcalase [6]; Liquid Detergent (AMSA model), molar ratio 10): 147%
- detergency with the inhibitor relative to without (Alcalase [6]; Powder Detergent 2 at 2.5 g/L, molar ratio 3): 103%
- detergency with the inhibitor relative to without (Alcalase [6]; Powder Detergent 2 at 2.5 g/L, molar ratio 5): 113%
- detergency with the inhibitor relative to without (Alcalase [6]; Powder Detergent 2 at 2.5 g/L, molar ratio 7.5): 116%
- detergency with the inhibitor relative to without (Alcalase [6]; Powder Detergent 2 at 2.5 g/L, molar ratio 10): 119%
- detergency with the inhibitor relative to without (Savinase variant S99SE; molar ratio 1.5): 100%
- detergency with the inhibitor relative to without (Savinase variant S99SE; molar ratio 3): 103%
- detergency with the inhibitor relative to without (Savinase variant S99SE; molar ratio 5): 106%
- detergency with the inhibitor relative to without ([7]; molar ratio 1.5): 100%
- detergency with the inhibitor relative to without ([7]; molar ratio 3): 107%
- detergency with the inhibitor relative to without ([7]; molar ratio 5): 107%
- Detergency increase (Protease 10R): 107%
- Detergency increase (Protease PD138): 107%
